How the values were obtained:
[1] = target: T1, FL-CHK1 (Homo sapiens, UniProt O14757); assay: CHK1 assay; format: biochemical; parameters: CHK1^b: unit not given here; settings: Table A combinatorial examples; footnote b not given
T1 construct: C-terminally His-tagged full-length human CHK1 (FL-CHK1); 6xHis (C); made in house; host or cells: baculovirus/insect cells
T1 sequence (O14757 1-476): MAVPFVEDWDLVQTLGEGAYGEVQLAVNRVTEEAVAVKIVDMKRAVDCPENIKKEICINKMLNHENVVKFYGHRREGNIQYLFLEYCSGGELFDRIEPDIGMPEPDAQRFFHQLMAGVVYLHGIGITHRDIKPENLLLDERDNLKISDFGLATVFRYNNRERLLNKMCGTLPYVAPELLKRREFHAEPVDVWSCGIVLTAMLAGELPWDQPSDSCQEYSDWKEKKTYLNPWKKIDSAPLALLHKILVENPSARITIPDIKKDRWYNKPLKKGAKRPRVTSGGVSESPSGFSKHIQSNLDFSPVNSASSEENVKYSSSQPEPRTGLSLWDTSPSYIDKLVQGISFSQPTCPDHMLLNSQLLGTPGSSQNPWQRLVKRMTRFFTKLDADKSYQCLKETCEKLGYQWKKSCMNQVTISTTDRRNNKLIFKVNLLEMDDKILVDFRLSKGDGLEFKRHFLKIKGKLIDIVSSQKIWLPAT
Text: CHK-1 Construct for Assay: C-terminally His-tagged full-length human CHK1 (FL-CHK1) was expressed using the baculovirus/insect cell system. It contains 6 histidine residues (6×His-tag) at the C-terminus of the 476 amino acid human CHK1. The protein was purified by conventional chromatographic techniques.
The production of ADP from ATP that accompanies phosphoryl transfer to the synthetic substrate peptide Syntide-2 ([…]) was coupled to oxidation of NADH using phosphoenolpyruvate (PEP) through the actions of pyruvate kinase (PK) and lactic dehydrogenase (LDH). The oxidation of NADH was monitored by following the decrease of absorbance at 340 nm (ε340=6.22 cm^−1 mM^−1) using a HP8452 spectrophotometer. Typical reaction solutions contained: […]; 0.15 mM NADH; 28 units of LDH/ml; 16 units of PK/ml; 3 mM DTT; 0.125 mM Syntide-2; 0.15 mM ATP; 25 mM MgCl2 in 50 mM TRIS, pH 7.5; and 400 mM NaCl. Assays were initiated with 10 nM of FL-CHK1. Ki values were determined by measuring initial enzyme activity in the presence of varying concentrations of test compounds. The data were analyzed using Enzyme Kinetic and Kaleidagraph software.

[2] = target: CDK2/Cyclin A complex (Homo sapiens, UniProt P24941); assay: CDK2/Cyclin A assay; format: biochemical; parameters: CDK2^c: concentration or dose not given beside the values; settings: Table A combinatorial examples; footnote c not given
Text: CDK2/Cyclin A Construct for Assay: CDK2 was purified using published methodology (Rosenblatt et al., J. Mol. Biol., 230, 1317-1319 (1993)) from insect cells that had been infected with a baculovirus expression vector. Cyclin A was purified from E. coli cells expressing full-length recombinant cyclin A, and a truncated cyclin A construct was generated by limited proteolysis and purified as described previously (Jeffrey et al., Nature, 376, 313-320 (Jul. 27, 1995)).
CDK2/Cyclin A and CDK4/Cyclin D Assays
Cyclin-dependent kinase activity was measured by quantifying the enzyme-catalyzed, time-dependent incorporation of radioactive phosphate from [^32P]ATP into a recombinant fragment of the retinoblastoma protein. Unless noted otherwise, assays were performed in 96-well plates in a total volume of 50 μL, in the presence of 10 mM HEPES (N-[2-hydroxyethyl]piperazine-N′-[2-ethanesulfonic acid]) (pH 7.4), 10 mM MgCl2, 25 μM adenosine triphosphate (ATP), 1 mg/mL ovalbumin, 5 μg/mL leupeptin, 1 mM dithiothreitol, 10 mM β-glycerophosphate, 0.1 mM sodium vanadate, 1 mM sodium fluoride, 2.5 mM ethylene glycol-bis(β-aminoethyl ether)-N,N,N′N′-tetraacetic acid (EGTA), 2% (v/v) dimethylsulfoxide, and 0.03-0.2 μCi [^32P]ATP. The substrate (0.3-0.5 μg) was purified recombinant retinoblastoma protein fragment (Rb) (residues 386-928 of the native retinoblastoma protein; 62.3 kDa, containing the majority of the phosphorylation sites found in the native 106-kDa protein, as well as a tag of six histidine residues for ease of purification). Reactions were initiated with CDK2 (150 nM CDK2/Cyclin A complex) or CDK4 (50 nM CDK4/Cyclin D3 complex), incubated at 30° C., and terminated after 20 minutes by the addition of ethylenediaminetetraacetic acid EDTA) to 250 mM. The phosphorylated substrate was then captured on a nitrocellulose membrane using a 96-well filtration manifold, and unincorporated radioactivity was removed by repeated washing with 0.85% phosphoric acid. Radioactivity was quantified by exposing the dried nitrocellulose membranes to a phosphorimager. Apparent Ki values were measured by assaying enzyme activity in the presence of different compound concentrations and subtracting the background radioactivity measured in the absence of enzyme. The kinetic parameters (kcat, Km for ATP) were measured for each enzyme under the usual assay conditions by determining the dependence of initial rates on ATP concentration. The data were fit to an equation for competitive inhibition using Kaleidagraph (Synergy Software), or were fit to an equation for competitive tight-binding inhibition using the software KineTic (BioKin, Ltd.). Measured Ki values for known inhibitors against CDK4 and CDK2 agreed with published IC50 values. The specific activity of CDK4 was the same whether complexed to full-length cyclin D3 or the truncated Cyclin D3 construct; both complexes also yielded very similar Ki values for selected inhibitors.

[3] = target: T2, phosphorylated VEGF-R2Δ50 (FLVK-P) (Homo sapiens, UniProt P35968, DEL940-989/E990V); assay: VEGF-R2 coupled spectrophotometric (FLVK-P) assay; format: biochemical; settings: Table 2; spectrophotometric assay
T2 construct: VEGF-R2Δ50 contains residues 806-939 and 990-1171; made in house; host or cells: baculovirus/insect cells
T2 sequence (P35968 with tags, fused parts or gaps DEL940-989/E990V limits assumed): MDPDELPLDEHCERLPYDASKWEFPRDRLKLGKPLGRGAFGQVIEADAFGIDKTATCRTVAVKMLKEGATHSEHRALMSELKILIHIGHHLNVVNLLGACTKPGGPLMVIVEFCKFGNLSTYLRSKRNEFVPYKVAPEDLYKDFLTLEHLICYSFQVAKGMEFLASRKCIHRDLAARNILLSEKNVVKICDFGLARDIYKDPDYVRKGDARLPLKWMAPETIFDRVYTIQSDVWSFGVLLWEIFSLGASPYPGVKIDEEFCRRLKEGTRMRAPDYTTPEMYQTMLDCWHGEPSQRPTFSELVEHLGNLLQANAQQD
Text: VEGF-R2 Construct for Assay: This construct determines the ability of a test compound to inhibit tyrosine kinase activity. A construct (VEGF-R2Δ50) of the cytosolic domain of human vascular endothelial growth factor receptor 2 (VEGF-R2) lacking the 50 central residues of the 68 residues of the kinase insert domain was expressed in a baculovirus/insect cell system. Of the 1356 residues of full-length VEGF-R2, VEGF-R2Δ50 contains residues 806-939 and 990-1171, and also one point mutation (E990V) within the kinase insert domain relative to wild-type VEGF-R2. Autophosphorylation of the purified construct was performed by incubation of the enzyme at a concentration of 4 μM in the presence of 3 mM ATP and 40 mM MgCl2 in 100 mM Hepes, pH 7.5, containing 5% glycerol and 5 mM DTT, at 4° C. for 2 h. […] See Parast et al., Biochemistry, 37, 16788-16801 (1998).
Coupled Spectrophotometric (FLVK-P) Assay
The production of ADP from ATP that accompanies phosphoryl transfer was coupled to oxidation of NADH using phosphoenolpyruvate (PEP) and a system having pyruvate kinase (PK) and lactic dehydrogenase (LDH). The oxidation of NADH was monitored by following the decrease of absorbance at 340 nm (e340=6.22 cm^−1 mM^−1) using a Beckman DU 650 spectrophotometer. Assay conditions for phosphorylated VEGF-R2Δ50 (indicated as FLVK-P in the tables below) were the following: 1 mM PEP; 250 μM NADH; 50 units of LDH/mL; 20 units of PK/mL; 5 mM DTT; 5.1 mM poly(E4Y1); 1 mM ATP; and 25 mM MgCl2 in 200 mM Hepes, pH 7.5. Assay conditions for unphosphorylated VEGF-R2Δ50 (indicated as FLVK in the tables) were the following: 1 mM PEP; 250 μM NADH; 50 units of LDH/mL; 20 units of PK/mL; 5 mM DTT; 20 mM poly(E4Y1); 3 mM ATP; and 60 mM MgCl2 and 2 mM MnCl2 in 200 mM Hepes, pH 7.5. Assays were initiated with 5 to 40 nM of enzyme. Ki values were determined by measuring enzyme activity in the presence of varying concentrations of test compounds. The data were analyzed using Enzyme Kinetic and Kaleidagraph software.

[4] = tested on: human umbilical vein endothelial cells (HUVEC); assay: HUVEC proliferation assay; format: cell-based; settings: Homo sapiens, HUVEC, Table 2
Method in brief: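 Exponentially growing HUVEC were serum-starved 24 h (F12K + 1% FBS), pre-treated 1 h with compound (0.1% DMSO final), then stimulated with 6 ng/ml VEGF. Proliferation was read 72 h later by MTT reduction (A595). IC50 came from seven 0.5-log concentrations in triplicate; screens gave % inhibition relative to VEGF-only and starved wells.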

| Structure (SMILES) | CHK1^b [1] | CDK2^c [2] | Ki [3] | IC50 [4] |
| --- | --- | --- | --- | --- |
| COc1cc(Nc2nc(N)c(-c3nc(-c4cc(Br)c(Cl)s4)cs3)s2)cc(OC)c1OC | 32 | −0.2 |  |  |
| COc1cc(Nc2nc(N)c(-c3nc(-c4ccc(-c5ccc(Cl)cc5Cl)o4)cs3)s2)cc(OC)c1OC | 23 | 12.4 |  |  |
| COc1ccc(OC)c(-c2csc(-c3sc(Nc4cc(OC)c(OC)c(OC)c4)nc3N)n2)c1 | 6.1 | 12.2 |  |  |
| CCOC(=O)c1cc(-c2csc(-c3sc(Nc4cc(OC)c(OC)c(OC)c4)nc3N)n2)on1 | 2.7 | 23.2 |  |  |
| COc1cc(Nc2nc(N)c(-c3nc(-c4c(C)c(C)c(C)c(C)c4C)cs3)s2)cc(OC)c1OC | 48.3 | 19.8 |  |  |
| COc1cc(Nc2nc(N)c(-c3nc(-c4cc(-c5ccccc5)no4)cs3)s2)cc(OC)c1OC | 2.7 | 11.2 |  |  |
| COc1cc(Nc2nc(N)c(-c3nc(-c4cc(-c5ccc(Cl)c(Cl)c5)no4)cs3)s2)cc(OC)c1OC | 0.9 | 17.5 |  |  |
| COc1cc(Nc2nc(N)c(-c3nc(-c4c(Cl)cc(C(F)(F)F)cc4Cl)cs3)s2)cc(OC)c1OC | 26.2 | −6 |  |  |
| COc1cc(Nc2nc(N)c(-c3nc(-c4csc5ccccc45)cs3)s2)cc(OC)c1OC | 13.2 | 9.1 |  |  |
| COc1cc(Nc2nc(N)c(-c3nc(-c4cc(C(=O)C(Cl)(Cl)Cl)n(C)c4)cs3)s2)cc(OC)c1OC | 6.4 | 3.9 |  |  |
| COc1cc(Nc2nc(N)c(-c3nc(-c4cc5cc(Cl)ccc5o4)cs3)s2)cc2c1OCCO2 | 25.4 | −6 |  |  |
| COc1cc(Nc2nc(N)c(C3=N[C@@H](Cc4ccccc4)CO3)s2)cc(OC)c1OC [I(1), S-5-(4-Benzyl-4,5-dihydro-oxazol-2-yl)-N^2-(3,4,5-trimethoxyl-pheny)-thiazole-2,4-diamine] |  |  | > 100 µM | 61 µM |

The next lines start with results.

| CHK1^b [1] | CDK2^c [2] | Ki [3] | Structure (SMILES) | IC50 [4] |
| --- | --- | --- | --- | --- |
| 20 | −3.5 |  | COc1ccccc1-c1csc(-c2sc(Nc3cc(OC)c(OC)c(OC)c3)nc2N)n1 |  |
| 3.7 | −2.1 |  | COc1cc(Nc2nc(N)c(-c3nc(-c4ccc(C)cc4)cs3)s2)cc(OC)c1OC |  |
| 9.9 | 4.9 |  | COc1ccc(-c2csc(-c3sc(Nc4cc(OC)c(OC)c(OC)c4)nc3N)n2)c(OC)c1 |  |
| 11.2 | 0.1 |  | COc1cc(Nc2nc(N)c(-c3nc(-c4ccc(Cl)cc4)cs3)s2)cc(OC)c1OC |  |
| 36.6 | 1.9 |  | COc1cc(Nc2nc(N)c(-c3nc(-c4ccccc4[N+](=O)O)cs3)s2)cc(OC)c1OC |  |
| 15.2 | −14.4 |  | COc1cc(Nc2nc(N)c(-c3nc(-c4ccc([N+](=O)[O-])cc4)cs3)s2)cc(OC)c1OC |  |
| 11.7 | −4.4 |  | COc1cc(Nc2nc(N)c(-c3nc(-c4ccc(Cl)c(C)c4)cs3)s2)cc(OC)c1OC |  |
| 18.7 | 20.4 |  | COc1cc(Nc2nc(N)c(-c3nc(-c4ccc(-c5ccccc5)cc4)cs3)s2)cc(OC)c1OC |  |
| 10.3 | 15.6 |  | COc1cc(Nc2nc(N)c(-c3nc(-c4ccc(C#N)cc4)cs3)s2)cc(OC)c1OC |  |
| 31.3 | 3.8 |  | COc1cc(Nc2nc(N)c(-c3nc(-c4ccc(Cl)cc4Cl)cs3)s2)cc(OC)c1OC |  |
| 21.2 | −0.4 |  | COc1cccc(-c2csc(-c3sc(Nc4cc(OC)c(OC)c(OC)c4)nc3N)n2)c1 |  |
| 41.4 | 4.4 |  | CCOC(=O)c1ccccc1-c1csc(-c2sc(Nc3cc(OC)c(OC)c(OC)c3)nc2N)n1 |  |
| 30.9 | −7.5 |  | COc1cc(Nc2nc(N)c(-c3nc(-c4cc(F)c(C)c(Cl)c4)cs3)s2)cc(OC)c1OC |  |
| 8.9 | 11.3 |  | CCCCCc1ccc(-c2csc(-c3sc(Nc4cc(OC)c(OC)c(OC)c4)nc3N)n2)cc1 |  |
| −7.4 | 1.6 |  | COc1cc(Nc2nc(N)c(-c3nc(-c4ccccc4OC(C)=O)cs3)s2)cc(OC)c1OC |  |
| 1.3 | 6.3 |  | CCN(CC)c1ccc(-c2csc(-c3sc(Nc4cc(OC)c(OC)c(OC)c4)nc3N)n2)cc1 |  |
| 13.5 | 15.6 |  | COc1cc(Nc2nc(N)c(-c3nc(-c4cccc(Br)c4)cs3)s2)cc(OC)c1OC |  |
